Experimental data: patent US6355799B1, “Substituted benzene compounds, process for their preparation, and herbicidal and defoliant compositions containing them” (ISK Americas Incorporated, priority 1997, dated 2002)

How the values were obtained:
Format in all cases: in vivo
[1] = system: field corn (Zea mays L., var. Dekalb 535, CORN); assay: Post-emerge test, crop safety; conditions: rating scale 0-100 (0 no damage, 100 complete death), 14 days after application
Procedure, shortened: (§1)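 Sandy loam pots; pre-emerge: sown 1 d pre-spray, surface-watered after, then bottom-watered. Post-emerge: sown 8–21 d before, 2–3 leaf stage, + 0.25% v/v NIS, bottom-watered. Acetone, 187 l/ha track spray, 15–1000 g ai/ha. 0–100 injury score, day 14.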

[2] = system: upland rice (Oryza sp., var. Tebonnet, RICE); assay: Post-emerge test, crop safety; conditions: rating scale 0-100 (0 no damage, 100 complete death), 14 days after application
Procedure, shortened: as §1

[3] = system: green foxtail (Setaria viridis, SETVI); assay: Post-emerge test, greenhouse herbicide activity screening; conditions: rating scale 0-100 (0 no damage, 100 complete death), 14 days after application
Procedure, shortened: (§2)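 Visual ratings on a 0-100 scale (0 no damage, 100 all plants dead) were taken at 14 days after treatment. Rates of 15-1000 g ai/ha in acetone, 187 l/ha, were sprayed onto soil one day after planting (pre-emerge) or onto 2-3 leaf plants with 0.25% v/v surfactant (post-emerge).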

[4] = system: common ragweed (Ambrosia artemisizfolia L., AMBEL); assay: as above; conditions: Rate 63 g ai/ha; rating scale 0-100 (0 no damage, 100 complete death); 14 days after application
Procedure, shortened: as §2

[5] = system: lambsquarters (Chenopodium album, CHEAL); assay: as above; conditions: rating scale 0-100 (0 no damage, 100 complete death), 14 days after application
Procedure, shortened: as §2

[6] = system: redroot pigweed (Amaranthus retroflexus, AMARE); assay: as above; conditions: rating scale 0-100 (0 no damage, 100 complete death), 14 days after application
Procedure, shortened: as §2

[7] = system: sicklepod (Cassia obtusifolia, CASOB); assay: as above; conditions: rating scale 0-100 (0 no damage, 100 complete death), 14 days after application
Procedure, shortened: as §2

[8] = system: ivyleaf morningglory (Ipomoea hederacea, IPOHE); assay: as above; conditions: rating scale 0-100 (0 no damage, 100 complete death), 14 days after application
Procedure, shortened: as §2

[9] = system: velvetleaf (Abutilon theophrasti, ABUTH); assay: as above; conditions: rating scale 0-100 (0 no damage, 100 complete death), 14 days after application
Procedure, shortened: as §2

[10] = system: barnyardgrass (Echinochloa crus-galli, ECHCG); assay: as above; conditions: rating scale 0-100 (0 no damage, 100 complete death), 14 days after application
Procedure, shortened: as §2

[11] = system: large crabgrass (Digitaria sanguinalis, DIGSA); assay: as above; conditions: rating scale 0-100 (0 no damage, 100 complete death), 14 days after application
Procedure, shortened: as §2

[12] = system: johnsongrass (Sorghum halepense, SORHA); assay: as above; conditions: rating scale 0-100 (0 no damage, 100 complete death), 14 days after application
Procedure, shortened: as §2

[13] = system: green foxtail (Setaria viridis, SETVI); assay: Pre-emerge test, greenhouse herbicide activity screening; conditions: pre-emerge, 14 days after application, rating scale 0-100
Procedure, shortened: as §1

[14] = system: common ragweed (Ambrosia artemisizfolia L., AMBEL); assay: as above; conditions: pre-emerge, 14 days after application, rating scale 0-100
Procedure, shortened: as §1

[15] = system: lambsquarters (Chenopodium album, CHEAL); assay: as above; conditions: pre-emerge, 14 days after application, rating scale 0-100
Procedure, shortened: as §1

[16] = system: sicklepod (Cassia obtusifolia, CASOB); assay: as above; conditions: pre-emerge, 14 days after application, rating scale 0-100
Procedure, shortened: as §1

[17] = system: ivyleaf morningglory (Ipomoea hederacea, IPOHE); assay: as above; conditions: pre-emerge, 14 days after application, rating scale 0-100
Procedure, shortened: as §1

[18] = system: velvetleaf (Abutilon theophrasti, ABUTH); assay: as above; conditions: pre-emerge, 14 days after application, rating scale 0-100
Procedure, shortened: as §1

[19] = system: barnyardgrass (Echinochloa crus-galli, ECHCG); assay: as above; conditions: pre-emerge, 14 days after application, rating scale 0-100
Procedure, shortened: as §1

[20] = system: large crabgrass (Digitaria sanguinalis, DIGSA); assay: as above; conditions: pre-emerge, 14 days after application, rating scale 0-100
Procedure, shortened: as §1

[21] = system: johnsongrass (Sorghum halepense, SORHA); assay: as above; conditions: pre-emerge, 14 days after application, rating scale 0-100
Procedure, shortened: as §1

[22] = system: field corn (Zea mays L., var. Dekalb 535, CORN); assay: Pre-emerge test, crop safety; conditions: pre-emerge, 14 days after application, rating scale 0-100
Procedure, shortened: (§3)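 Applied at 15–1000 g ai/ha from acetone in 187 l/ha spray volume. Post-emergence applications included 0.25% v/v non-ionic surfactant and reached plants sown 8–21 days before. Pre-emergence applications were incorporated by surface watering. Efficacy or crop damage was rated on a 0–100 scale after 14 days.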

[23] = system: upland rice (Oryza sp., var. Tebonnet, RICE); assay: Pre-emerge test, crop safety; conditions: pre-emerge, 14 days after application, rating scale 0-100
Procedure, shortened: as §3

[24] = system: redroot pigweed (Amaranthus retroflexus, AMARE); assay: Pre-emerge test, greenhouse herbicide activity screening; conditions: pre-emerge, 14 days after application, rating scale 0-100
Procedure, shortened: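 Compounds in acetone were track-sprayed at 187 l/ha, 15–1000 g ai/ha, onto sandy loam pots. Pre-emerge seeds were sown one day before spraying, with surface watering afterwards. Post-emerge plants were at the 2–3 leaf stage and sprayed with 0.25% v/v non-ionic surfactant. Injury was rated 0–100 at 14 days.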

In the case of `COc1c(Cl)cc(F)c(-n2c(=O)cc(C(F)(F)F)n(C)c2=O)c1CC(C)(Cl)C(=O)OCCSC` (centres unmarked) [14-48], the “Post-emerge phytotoxicity rating CORN (crop damage)” value ([1]; Rate 63 g ai/ha) is reported as 40, the “Post-emerge phytotoxicity rating CORN (crop damage)” value ([1]; Rate 250 g ai/ha) is reported as 100 and the “Post-emerge phytotoxicity rating RICE (crop damage)” value ([2]; Rate 63 g ai/ha) is reported as 70. For the same compound, the “Post-emerge phytotoxicity rating RICE (crop damage)” value ([2]; Rate 250 g ai/ha) was 100, the “Post-emerge Herbicidal Activity, phytotoxicity rating SETVI” value ([3]; Rate 63 g ai/ha) was 50 and the “Post-emerge Herbicidal Activity, phytotoxicity rating SETVI” value ([3]; Rate 250 g ai/ha) was 100. The “Post-emerge Herbicidal Activity, phytotoxicity rating AMBEL” value [4] was 80, the “Post-emerge Herbicidal Activity, phytotoxicity rating CHEAL” value ([5]; Rate 63 g ai/ha) was 100 and the “Post-emerge Herbicidal Activity, phytotoxicity rating CHEAL” value ([5]; Rate 250 g ai/ha) was 100. For the same compound, the “Post-emerge Herbicidal Activity, phytotoxicity rating AMARE” value ([6]; Rate 63 g ai/ha) was 100, the “Post-emerge Herbicidal Activity, phytotoxicity rating AMARE” value ([6]; Rate 250 g ai/ha) was 100 and the “Post-emerge Herbicidal Activity, phytotoxicity rating CASOB” value ([7]; Rate 63 g ai/ha) was 0. The “Post-emerge Herbicidal Activity, phytotoxicity rating CASOB” value ([7]; Rate 250 g ai/ha) was 100, the “Post-emerge Herbicidal Activity, phytotoxicity rating IPOHE” value ([8]; Rate 63 g ai/ha) was 0 and the “Post-emerge Herbicidal Activity, phytotoxicity rating IPOHE” value ([8]; Rate 250 g ai/ha) was 100. For the same compound, the “Post-emerge Herbicidal Activity, phytotoxicity rating ABUTH” value ([9]; Rate 63 g ai/ha) was 100, the “Post-emerge Herbicidal Activity, phytotoxicity rating ABUTH” value ([9]; Rate 250 g ai/ha) was 100 and the “Post-emerge Herbicidal Activity, phytotoxicity rating ECHCG” value ([10]; Rate 63 g ai/ha) was 50. For the same compound, the “Post-emerge Herbicidal Activity, phytotoxicity rating ECHCG” value ([10]; Rate 250 g ai/ha) was 100, the “Post-emerge Herbicidal Activity, phytotoxicity rating DIGSA” value ([11]; Rate 63 g ai/ha) was 70 and the “Post-emerge Herbicidal Activity, phytotoxicity rating DIGSA” value ([11]; Rate 250 g ai/ha) was 90. For the same compound, the “Post-emerge Herbicidal Activity, phytotoxicity rating SORHA” value ([12]; Rate 63 g ai/ha) was 0, the “Post-emerge Herbicidal Activity, phytotoxicity rating SORHA” value ([12]; Rate 250 g ai/ha) was 90 and the “phytotoxicity rating SETVI” value ([13]; 63 g ai/ha) was 0. For the same compound, the “phytotoxicity rating SETVI” value ([13]; 250 g ai/ha) was 50, the “phytotoxicity rating AMBEL” value ([14]; 63 g ai/ha) was 0 and the “phytotoxicity rating AMBEL” value ([14]; 250 g ai/ha) was 80. The “phytotoxicity rating CHEAL” value ([15]; 63 g ai/ha) was 50, the “phytotoxicity rating CHEAL” value ([15]; 250 g ai/ha) was 100 and the “phytotoxicity rating CASOB” value ([16]; 63 g ai/ha) was 0. The “phytotoxicity rating CASOB” value ([16]; 250 g ai/ha) was 0, the “phytotoxicity rating IPOHE” value ([17]; 63 g ai/ha) was 0 and the “phytotoxicity rating IPOHE” value ([17]; 250 g ai/ha) was 0. For the same compound, the “phytotoxicity rating ABUTH” value ([18]; 63 g ai/ha) was 90, the “phytotoxicity rating ABUTH” value ([18]; 250 g ai/ha) was 100 and the “phytotoxicity rating ECHCG” value ([19]; 63 g ai/ha) was 0. The “phytotoxicity rating ECHCG” value ([19]; 250 g ai/ha) was 50, the “phytotoxicity rating DIGSA” value ([20]; 63 g ai/ha) was 0 and the “phytotoxicity rating DIGSA” value ([20]; 250 g ai/ha) was 70. For the same compound, the “phytotoxicity rating SORHA” value ([21]; 63 g ai/ha) was 0, the “phytotoxicity rating SORHA” value ([21]; 250 g ai/ha) was 0 and the “phytotoxicity rating CORN” value ([22]; 63 g ai/ha) was 0. The “phytotoxicity rating CORN” value ([22]; 250 g ai/ha) was 40, the “phytotoxicity rating RICE” value ([23]; 63 g ai/ha) was 30 and the “phytotoxicity rating RICE” value ([23]; 250 g ai/ha) was 70. For the same compound, the “phytotoxicity rating AMARE” value ([24]; 63 g ai/ha) was 90 and the “phytotoxicity rating AMARE” value ([24]; 250 g ai/ha) was 100.
